Experimental data reported in paper PMC12454493, “Insight on novel sulfamoylphenyl pyrazole derivatives as anticancer carbonic anhydrase inhibitors” (Molecular Diversity, 2024).
Several values for one entry are separate records, joined by “and”; a condition that tells them apart may be missing. Equal entries are not always repeated.

Key:
M14 = test: NCI-60 one-dose SRB screen (Melanoma); assay type: cell-based; details: Homo sapiens, single dose 10 µM, 48 h, read-out: Growth inhibition percent (GI %)
Procedure: (§1) The National Cancer Institute (NCI) Developmental Therapeutic Program (www.dtp.nci.nih.gov) selected the 20 novel synthesized compounds 4a-e, 5a-e, 6a-c, 9a-e, 10 and 11 to test for their anticancer activity at a single dose of 10 µM using SRB assay. […] Supplementary Data S3; Table S1 presents the detailed screening results of the most promising compounds. The preliminary screening’s detailed results for the remaining compounds are elucidated in the (Supplementary Data S3; Table S2).
(§2) The guidelines of the Drug Evaluation Branch’s protocol at the NCI in Bethesda served as the basis for the in vitro anticancer screening assays. at one dose 10 µM against a panel of 60 cancer cell lines. The human tumor cell lines used belonged to nine panels: leukemia, melanoma, lung, colon, CNS, ovarian, renal, prostate and breast cancers using the sulforhodamine B (SRB) assay in a 48 h drug exposure protocol.

MALME-3M = test: NCI-60 one-dose SRB screen (Melanoma); assay type: cell-based; details: Homo sapiens, single dose 10 µM, 48 h, read-out: Growth inhibition percent (GI %)
Procedure: as §1, §2

MDA-MB-435 = test: NCI-60 one-dose SRB screen (Melanoma); assay type: cell-based; details: Homo sapiens, single dose 10 µM, 48 h, read-out: Growth inhibition percent (GI %)
Procedure: as §1, §2

SK-MEL-28 = test: NCI-60 one-dose SRB screen (Melanoma); assay type: cell-based; details: Homo sapiens, single dose 10 µM, 48 h, read-out: Growth inhibition percent (GI %)
Procedure: as §1, §2

SK-MEL-5 = test: NCI-60 one-dose SRB screen (Melanoma); assay type: cell-based; details: Homo sapiens, single dose 10 µM, 48 h, read-out: Growth inhibition percent (GI %)
Procedure: as §1, §2

UACC-257 = test: NCI-60 one-dose SRB screen (Melanoma); assay type: cell-based; details: Homo sapiens, single dose 10 µM, 48 h, read-out: Growth inhibition percent (GI %)
Procedure: as §1, §2

UACC-62 = test: NCI-60 one-dose SRB screen (Melanoma); assay type: cell-based; details: Homo sapiens, single dose 10 µM, 48 h, read-out: Growth inhibition percent (GI %)
Procedure: as §1, §2

IGROV1 = test: NCI-60 one-dose SRB screen (Ovarian cancer); assay type: cell-based; details: Homo sapiens, IGROV-1, single dose 10 µM, 48 h, read-out: Growth inhibition percent (GI %)
Procedure: as §1, §2

OVCAR-3 = test: NCI-60 one-dose SRB screen (Ovarian cancer); assay type: cell-based; details: Homo sapiens, single dose 10 µM, 48 h, read-out: Growth inhibition percent (GI %)
Procedure: as §1, §2

OVCAR-4 = test: NCI-60 one-dose SRB screen (Ovarian cancer); assay type: cell-based; details: Homo sapiens, single dose 10 µM, 48 h, read-out: Growth inhibition percent (GI %)
Procedure: as §1, §2

OVCAR-5 = test: NCI-60 one-dose SRB screen (Ovarian cancer); assay type: cell-based; details: Homo sapiens, single dose 10 µM, 48 h, read-out: Growth inhibition percent (GI %)
Procedure: as §1, §2

OVCAR-8 = test: NCI-60 one-dose SRB screen (Ovarian cancer); assay type: cell-based; details: Homo sapiens, single dose 10 µM, 48 h, read-out: Growth inhibition percent (GI %)
Procedure: as §1, §2

SK-OV-3 = test: NCI-60 one-dose SRB screen (Ovarian cancer); assay type: cell-based; details: Homo sapiens, single dose 10 µM, 48 h, read-out: Growth inhibition percent (GI %)
Procedure: as §1, §2

786-0 = test: NCI-60 one-dose SRB screen (Renal Cancer); assay type: cell-based; details: Homo sapiens, single dose 10 µM, 48 h, read-out: Growth inhibition percent (GI %)
Procedure: as §1, §2

A498 = test: NCI-60 one-dose SRB screen (Renal Cancer); assay type: cell-based; details: Homo sapiens, single dose 10 µM, 48 h, read-out: Growth inhibition percent (GI %)
Procedure: as §1, §2

ACHN = test: NCI-60 one-dose SRB screen (Renal Cancer); assay type: cell-based; details: Homo sapiens, single dose 10 µM, 48 h, read-out: Growth inhibition percent (GI %)
Procedure: as §1, §2

CAKI-1 = test: NCI-60 one-dose SRB screen (Renal Cancer); assay type: cell-based; details: Homo sapiens, single dose 10 µM, 48 h, read-out: Growth inhibition percent (GI %)
Procedure: as §1, §2

RXF 393 = test: NCI-60 one-dose SRB screen (Renal Cancer); assay type: cell-based; details: Homo sapiens, single dose 10 µM, 48 h, read-out: Growth inhibition percent (GI %)
Procedure: as §1, §2

SN12C = test: NCI-60 one-dose SRB screen (Renal Cancer); assay type: cell-based; details: Homo sapiens, single dose 10 µM, 48 h, read-out: Growth inhibition percent (GI %)
Procedure: as §1, §2

TK-10 = test: NCI-60 one-dose SRB screen (Renal Cancer); assay type: cell-based; details: Homo sapiens, single dose 10 µM, 48 h, read-out: Growth inhibition percent (GI %)
Procedure: as §1, §2

UO-31 = test: NCI-60 one-dose SRB screen (Renal Cancer); assay type: cell-based; details: Homo sapiens, single dose 10 µM, 48 h, read-out: Growth inhibition percent (GI %)
Procedure: as §1, §2

DU-145 = test: NCI-60 one-dose SRB screen (Prostate Cancer); assay type: cell-based; details: Homo sapiens, single dose 10 µM, 48 h, read-out: Growth inhibition percent (GI %)
Procedure: as §1, §2

PC-3 = test: NCI-60 one-dose SRB screen (Prostate Cancer); assay type: cell-based; details: Homo sapiens, single dose 10 µM, 48 h, read-out: Growth inhibition percent (GI %)
Procedure: as §1, §2

BT-549 = test: NCI-60 one-dose SRB screen (Breast Cancer); assay type: cell-based; details: Homo sapiens, single dose 10 µM, 48 h, read-out: Growth inhibition percent (GI %)
Procedure: as §1, §2

HS 578T = test: NCI-60 one-dose SRB screen (Breast Cancer); assay type: cell-based; details: Homo sapiens, single dose 10 µM, 48 h, read-out: Growth inhibition percent (GI %)
Procedure: as §1, §2

MCF-7 = test: NCI-60 one-dose SRB screen (Breast Cancer); assay type: cell-based; details: Homo sapiens, MCF7, single dose 10 µM, 48 h, read-out: Growth inhibition percent (GI %)
Procedure: as §1, §2

MDA-MB-231/ATCC = test: NCI-60 one-dose SRB screen (Breast Cancer); assay type: cell-based; details: Homo sapiens, single dose 10 µM, 48 h, read-out: Growth inhibition percent (GI %)
Procedure: as §1, §2

MDA-MB-468 = test: NCI-60 one-dose SRB screen (Breast Cancer); assay type: cell-based; details: Homo sapiens, single dose 10 µM, 48 h, read-out: Growth inhibition percent (GI %)
Procedure: as §1, §2

T-47D = test: NCI-60 one-dose SRB screen (Breast Cancer); assay type: cell-based; details: Homo sapiens, T47D, single dose 10 µM, 48 h, read-out: Growth inhibition percent (GI %)
Procedure: as §1, §2

hCA XII = hCA XII (Homo sapiens, UniProt O43570); test: CA inhibitory activity, spectrophotometric p-NPA assay; assay type: biochemical; details: p-NPA substrate, pH 7.5, 25 °C, triplicate; read-out: IC50 (µM) ± SD hCA XII
Chain of hCA XII (O43570 25-354): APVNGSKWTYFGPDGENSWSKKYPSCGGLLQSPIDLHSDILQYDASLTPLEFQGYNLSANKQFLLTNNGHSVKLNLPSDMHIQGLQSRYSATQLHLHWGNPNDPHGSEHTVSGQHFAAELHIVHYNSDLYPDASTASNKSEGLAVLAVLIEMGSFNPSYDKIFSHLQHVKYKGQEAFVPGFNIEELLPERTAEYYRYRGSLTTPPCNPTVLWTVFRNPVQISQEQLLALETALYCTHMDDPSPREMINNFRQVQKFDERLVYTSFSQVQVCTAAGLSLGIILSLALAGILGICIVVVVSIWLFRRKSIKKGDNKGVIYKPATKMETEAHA

`NS(=O)(=O)c1ccc(NC(=O)COC(=O)c2cn(-c3ccc(S(N)(=O)=O)cc3)nc2-c2ccccc2)cc1` [Compound 4a, 2-Oxo-2-[(4-sulfamoylphenyl)amino] ethyl 3-phenyl-1-(4-sulfamoylphenyl)-1H-pyrazole-4-carboxylate] showed an inhibition at 10 µM (M14) of 23.2%, an inhibition at 10 µM (MALME-3M) of 8.55% and an inhibition at 10 µM (MDA-MB-435) of under 5%. The inhibition at 10 µM (SK-MEL-28) was under 5%, the inhibition at 10 µM (SK-MEL-5) was under 5% and the inhibition at 10 µM (UACC-257) was under 5%. For the same compound, the inhibition at 10 µM (UACC-62) was under 5%, the inhibition at 10 µM (IGROV1) was under 5% and the inhibition at 10 µM (OVCAR-3) was under 5%. It also gave an inhibition at 10 µM (OVCAR-4) of under 5%, an inhibition at 10 µM (OVCAR-5) of under 5% and an inhibition at 10 µM (OVCAR-8) of under 5%. It also gave an inhibition at 10 µM (SK-OV-3) of under 5%, an inhibition at 10 µM (786-0) of 31.2% and an inhibition at 10 µM (A498) of under 5%. It also gave an inhibition at 10 µM (ACHN) of under 5%, an inhibition at 10 µM (CAKI-1) of 11.6% and an inhibition at 10 µM (RXF 393) of under 5%. It also gave an inhibition at 10 µM (SN12C) of under 5%, an inhibition at 10 µM (TK-10) of under 5% and an inhibition at 10 µM (UO-31) of 15%. It also gave an inhibition at 10 µM (DU-145) of under 5%, an inhibition at 10 µM (PC-3) of under 5% and an inhibition at 10 µM (BT-549) of 43.4%. The inhibition at 10 µM (HS 578T) was under 5%, the inhibition at 10 µM (MCF-7) was under 5% and the inhibition at 10 µM (MDA-MB-231/ATCC) was 10.5%. For the same compound, the inhibition at 10 µM (MDA-MB-468) was under 5%, the inhibition at 10 µM (T-47D) was under 5% and the IC50 (hCA XII) was 0.22 µM and 0.226 µM.
